In US20230414826A1, “FIBRIN HYDROGELS” (Mayo Foundation for Medical Education and Research, priority 2020, published 2023) one finds largest fibril diameters data, which are given here for two compounds.

Molecules are shown by their SMILES.

The assay addresses T1, fibrin gels (40 mg/mL fibrinogen, 33 U/mL thrombin) (Homo sapiens, UniProt P02671+P02675+P02679).
T1 construct: purchased Ethicon (Evicel)
T1 sequence (P02671 20-644 isoform P02671-2 limits assumed): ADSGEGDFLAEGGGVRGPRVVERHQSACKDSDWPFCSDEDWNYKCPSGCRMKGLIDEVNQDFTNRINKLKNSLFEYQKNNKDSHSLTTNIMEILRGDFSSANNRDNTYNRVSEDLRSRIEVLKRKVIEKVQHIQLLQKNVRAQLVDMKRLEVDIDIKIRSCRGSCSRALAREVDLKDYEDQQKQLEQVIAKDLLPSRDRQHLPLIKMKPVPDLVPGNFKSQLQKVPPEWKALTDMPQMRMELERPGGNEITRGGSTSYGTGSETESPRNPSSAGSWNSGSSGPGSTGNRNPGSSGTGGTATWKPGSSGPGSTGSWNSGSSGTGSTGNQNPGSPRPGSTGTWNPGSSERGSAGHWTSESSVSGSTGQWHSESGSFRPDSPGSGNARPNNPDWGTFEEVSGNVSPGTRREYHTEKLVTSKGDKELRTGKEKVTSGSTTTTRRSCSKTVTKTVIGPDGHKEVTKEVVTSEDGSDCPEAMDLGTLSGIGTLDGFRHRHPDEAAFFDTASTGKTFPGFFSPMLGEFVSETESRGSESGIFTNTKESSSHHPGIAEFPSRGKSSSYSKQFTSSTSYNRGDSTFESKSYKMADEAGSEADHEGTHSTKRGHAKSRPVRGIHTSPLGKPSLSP
T1 sequence (P02675 45-491 limits assumed): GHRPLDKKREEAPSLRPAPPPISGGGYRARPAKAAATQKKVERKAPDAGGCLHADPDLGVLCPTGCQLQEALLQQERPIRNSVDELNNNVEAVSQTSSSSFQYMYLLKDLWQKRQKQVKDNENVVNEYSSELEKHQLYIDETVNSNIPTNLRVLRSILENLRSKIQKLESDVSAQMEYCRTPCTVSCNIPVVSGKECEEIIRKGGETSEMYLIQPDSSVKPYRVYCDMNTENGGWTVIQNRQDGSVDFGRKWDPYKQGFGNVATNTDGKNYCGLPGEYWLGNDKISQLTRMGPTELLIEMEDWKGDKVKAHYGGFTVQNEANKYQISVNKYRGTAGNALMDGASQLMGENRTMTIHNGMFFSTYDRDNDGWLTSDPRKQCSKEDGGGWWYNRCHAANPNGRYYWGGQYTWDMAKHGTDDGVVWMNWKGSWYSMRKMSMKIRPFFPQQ
T1 sequence (P02679 27-437 isoform P02679-2 limits assumed): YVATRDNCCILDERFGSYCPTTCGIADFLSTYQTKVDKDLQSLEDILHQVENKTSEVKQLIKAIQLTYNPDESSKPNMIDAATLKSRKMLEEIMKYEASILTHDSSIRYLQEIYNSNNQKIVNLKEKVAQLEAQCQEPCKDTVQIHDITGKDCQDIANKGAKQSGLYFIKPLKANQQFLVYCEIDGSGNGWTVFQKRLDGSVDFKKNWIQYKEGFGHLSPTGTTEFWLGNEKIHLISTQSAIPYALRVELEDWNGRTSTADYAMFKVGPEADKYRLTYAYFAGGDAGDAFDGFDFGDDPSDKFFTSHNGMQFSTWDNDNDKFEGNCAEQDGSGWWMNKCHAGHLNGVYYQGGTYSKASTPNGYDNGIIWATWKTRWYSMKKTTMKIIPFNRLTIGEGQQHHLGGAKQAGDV
The assay can be described thus: Transmission electron microscopy of fibrin gel cross sections. The conditions noted are these: TEM, 0.12% w/v dye. On the procedure: Both scanning electron microscopy (SEM) and transmission electron microscopy (TEM) were performed to investigate the effect of the chemical additives on fibril formation microstructure. Gels were made with PBS, TB, or EB as described elsewhere (see, e.g., Gandhi et al., 2018 Acta Biomater., 67:134-46) with the following modifications. Briefly, a mixture of 40 mg/mL fibrinogen, 33 U/mL thrombin, and 0.12% w/v dye final concentrations was plated into a custom acetal mold to create the 300 μm sheet. After a 2 hour incubation at 37° C., the gels were hydrated in PBS for a minimum of 15 minutes.
The gels were then fixed overnight in 2.5% paraformaldehyde and 1% glutaraldehyde in 0.1 M phosphate buffer pH 7 containing 1.0 mM MgCl2 and 0.13 mM CaCl2. After fixation, gels were processed for scanning electron microscopy (SEM). Samples for TEM were processed by initially dehydrating the gels, embedding into plastic resin, and sectioned at a thickness of 100 nm. SEM imaging was performed using a Hitachi S-4700 (Hitachi High Technologies; Schaumburg, IL) microscope. Sections processed for TEM were imaged used a JEOL 1400 microscope (JEOL; Peabody, MA).
TEM was then performed to visualize the cross section of the fibrin gels. […] The PBS fibrin gel appears to have larger mesh spaces, with a large range of fibril diameters and orientation. […]

For `Cc1cc(-c2ccc(/N=N/c3ccc4c(S(=O)(=O)O)cc(S(=O)(=O)O)c(N)c4c3O)c(C)c2)ccc1/N=N/c1ccc2c(S(=O)(=O)O)cc(S(=O)(=O)O)c(N)c2c1O` [EB, Evans Blue], the largest fibril diameters is listed as 40-60 nm. On to `Cc1cc(-c2ccc(/N=N/c3c(S(=O)(=O)O)cc4cc(S(=O)(=O)O)cc(N)c4c3O)c(C)c2)ccc1/N=N/c1c(S(=O)(=O)O)cc2cc(S(=O)(=O)O)cc(N)c2c1O` [TB, Trypan Blue], for which the largest fibril diameters is 50-75 nm.
